In data set [1] the test system is HCT-116. Briefly: Antitumor activity against human HCT116 cells xenografted in athymic nu/nu Harlan mouse assessed as tumor growth inhibition at 50 mg/kg, po qd for 21 days measured on day 22. The note with it: read-out: TGI. It is filed as functional. On the technique in general: In xenograft studies the graft and the host belong to different species.
Data set [2] concerns HCT-116. Kind of data set: Antitumor activity against human HCT116 cells xenografted in athymic nude nu/nu CD1 mouse assessed as tumor growth inhibition at 40 mg/kg, ip qd for 7 days measured on day 10. It is filed as functional. The note with it: HCT-116, ip, route intraperitoneal, read-out: TGI.
Data set [3] relates to Mus musculus. Briefly: Toxicity in athymic nu/nu Harlan mouse xenografted with human HCT116 cells assessed as mouse survival at 50 mg/kg, po QD for 21 days measured on day 22. It is filed as organism-based, HCT-116. Further details: dose 50 mg/kg, route oral. As to conditions: in vivo, 504 h.
For data set [4], the system named is Mus musculus. Kind of data set: Toxicity in athymic nu/nu Harlan mouse xenografted with human HCT116 cells assessed as mouse survival at 200 mg/kg, po QD for 21 days measured on day 22. The note with it: in vivo, 504 h. It is filed as organism-based, HCT-116. Further details: dose 200 mg/kg, route oral.
The test system of another data set is COLO 205. Briefly: Antiproliferative activity against human COLO205 cells after 96 hrs by celltiter 96 assay. It is filed as functional, cell-based. As to conditions: COLO 205, 96 h.
For another data set, the system named is PC-3. Kind of data set: Antiproliferative activity against human PC3 cells after 96 hrs by celltiter 96 assay. The note with it: PC-3, 96 h. It is filed as functional, cell-based.
Data set [5] has as its system HCT-116. Kind of data set: Antitumor activity against human HCT116 cells xenografted in nude BALB/c mouse assessed as tumor growth inhibition at 200 mg/kg, po qd for 21 days measured on day 15. It is filed as functional. The note with it: read-out: TGI.
Data set [6] deals with Mus musculus. Briefly: Toxicity in athymic nu/nu Harlan mouse xenografted with human HCT116 cells assessed as mouse survival at 100 mg/kg, po QD for 21 days measured on day 22. It is filed as organism-based, HCT-116. On the set-up: dose 100 mg/kg, route oral. The note with it: in vivo, 504 h.
A further data set has as its system A2780. Briefly: Antiproliferative activity against human A2780 cells after 96 hrs by celltiter 96 assay. It is filed as functional, cell-based. As to conditions: A2780, 96 h.
Data set [7] has as its target T1, Protein deacetylase HDAC6 (Homo sapiens, UniProt Q9UBN7).
T1 sequence (Q9UBN7 whole entry): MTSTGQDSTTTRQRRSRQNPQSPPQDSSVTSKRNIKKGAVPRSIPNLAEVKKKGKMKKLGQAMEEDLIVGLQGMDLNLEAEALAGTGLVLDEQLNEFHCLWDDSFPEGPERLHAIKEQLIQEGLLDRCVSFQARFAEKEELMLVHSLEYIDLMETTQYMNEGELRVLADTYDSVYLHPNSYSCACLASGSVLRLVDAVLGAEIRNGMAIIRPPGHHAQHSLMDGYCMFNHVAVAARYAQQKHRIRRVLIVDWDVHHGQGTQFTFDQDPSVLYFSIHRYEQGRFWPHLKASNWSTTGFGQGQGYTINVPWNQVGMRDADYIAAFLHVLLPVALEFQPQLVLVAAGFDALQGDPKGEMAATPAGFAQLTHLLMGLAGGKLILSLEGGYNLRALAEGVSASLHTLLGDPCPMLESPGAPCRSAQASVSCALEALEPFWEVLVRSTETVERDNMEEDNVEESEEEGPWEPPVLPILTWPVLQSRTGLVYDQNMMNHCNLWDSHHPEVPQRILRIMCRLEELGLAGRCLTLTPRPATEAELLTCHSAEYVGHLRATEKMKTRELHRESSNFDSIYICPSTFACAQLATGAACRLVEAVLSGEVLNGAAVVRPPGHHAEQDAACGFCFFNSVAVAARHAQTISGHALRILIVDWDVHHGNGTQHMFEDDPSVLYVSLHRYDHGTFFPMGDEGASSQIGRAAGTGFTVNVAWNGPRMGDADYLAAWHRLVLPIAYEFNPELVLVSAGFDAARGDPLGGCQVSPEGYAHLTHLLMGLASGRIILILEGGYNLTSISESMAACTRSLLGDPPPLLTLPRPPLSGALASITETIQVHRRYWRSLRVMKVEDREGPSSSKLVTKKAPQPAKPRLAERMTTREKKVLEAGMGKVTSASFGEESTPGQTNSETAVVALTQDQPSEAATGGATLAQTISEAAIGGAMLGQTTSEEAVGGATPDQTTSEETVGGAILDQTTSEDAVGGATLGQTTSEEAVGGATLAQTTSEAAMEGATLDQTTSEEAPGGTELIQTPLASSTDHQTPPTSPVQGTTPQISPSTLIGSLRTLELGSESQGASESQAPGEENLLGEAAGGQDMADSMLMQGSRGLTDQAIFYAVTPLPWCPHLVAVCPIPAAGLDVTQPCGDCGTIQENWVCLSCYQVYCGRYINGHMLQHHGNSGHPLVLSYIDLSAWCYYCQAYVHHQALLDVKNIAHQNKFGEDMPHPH
Description: Competitive inhibition of HDAC6 using KI-104 as substrate by fluorescence assay

Data set [8] relates to Mus musculus. Kind of data set: Toxicity in athymic nu/nu Harlan mouse xenografted with human HCT116 cells assessed as body weight loss at 200 mg/kg, po QD for 7 days measured on day 5. It is filed as organism-based, HCT-116. Further details: dose 200 mg/kg, route oral. As to conditions: in vivo, 168 h.
In data set [9] the test system is HCT-116. Kind of data set: Antitumor activity against human HCT116 cells xenografted in athymic nu/nu Harlan mouse assessed as tumor growth inhibition at 100 mg/kg, po qd for 21 days measured on day 22. It is filed as functional. As to conditions: read-out: TGI.
For data set [10], the target named is T2, Polyamine deacetylase HDAC10 (Homo sapiens, UniProt Q969S8).
T2 sequence (Q969S8 whole entry): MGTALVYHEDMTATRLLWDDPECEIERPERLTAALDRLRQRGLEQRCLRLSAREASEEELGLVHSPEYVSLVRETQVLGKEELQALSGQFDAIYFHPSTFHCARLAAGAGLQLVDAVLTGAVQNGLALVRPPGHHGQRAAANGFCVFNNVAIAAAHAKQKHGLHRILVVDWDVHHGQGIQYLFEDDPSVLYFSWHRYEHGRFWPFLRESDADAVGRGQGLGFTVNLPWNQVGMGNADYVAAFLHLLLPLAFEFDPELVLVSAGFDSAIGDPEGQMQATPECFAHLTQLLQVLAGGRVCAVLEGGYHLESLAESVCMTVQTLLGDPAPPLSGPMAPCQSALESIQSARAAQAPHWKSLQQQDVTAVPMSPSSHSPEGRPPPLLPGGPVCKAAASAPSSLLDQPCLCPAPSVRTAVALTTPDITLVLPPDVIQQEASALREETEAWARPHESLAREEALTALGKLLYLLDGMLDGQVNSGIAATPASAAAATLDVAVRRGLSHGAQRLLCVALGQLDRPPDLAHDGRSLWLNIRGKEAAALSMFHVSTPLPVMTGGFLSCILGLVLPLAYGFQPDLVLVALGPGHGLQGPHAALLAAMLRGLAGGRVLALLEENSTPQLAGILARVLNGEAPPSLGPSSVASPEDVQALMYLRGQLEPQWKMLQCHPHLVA
Description: Competitive inhibition of HDAC10 using KI-104 as substrate by fluorescence assay

Data set [11] in a line: Oral bioavailability in nude BALB/c mouse at 50 mg/kg. It is filed as ADME, organism-based. The note with it: in vivo.
For data set [12], the system named is HCT-116. Briefly: Antiproliferative activity against human HCT116 cells after 96 hrs by celltiter 96 assay. It is filed as functional, cell-based. The note with it: HCT-116, 96 h.
The target in another data set is Histone deacetylase 4 (Homo sapiens, UniProt P56524).
Data set [13] relates to HCT-116. Briefly: Antitumor activity against human HCT116 cells xenografted in athymic nu/nu Harlan mouse assessed as tumor growth inhibition at 200 mg/kg, po qd for 21 days measured on day 22. It is filed as functional. As to conditions: read-out: TGI.
The nature of data set [14]: 1-Octanol-sodium phosphate buffer distribution coefficient, log D of the compound at pH 7.4. It is filed as physicochemical. As to conditions: 1-octanol/sodium phosphate buffer, read-out: logD.
Data set [15] has as its system Mus musculus. Briefly: Toxicity in athymic nu/nu Harlan mouse xenografted with human HCT116 cells assessed as body weight loss at 50 mg/kg, po QD for 21 days measured on day 5. It is filed as organism-based, HCT-116. The note with it: in vivo, 504 h. Further details: dose 50 mg/kg, route oral.
Data set [16] in a line: Half life in rat liver microsomes. It is filed as ADME, Microsome. (Microsomes from liver hold many membrane-bound enzymes, among them those of drug oxidation.)
Data set [17] is described as follows: Half life in dog liver microsomes. It is filed as ADME, Canis lupus familiaris, Microsome.
A short description of data set [18]: Kinetic solubility of the compound at pH 7 with […] DMSO. It is filed as physicochemical. The note with it: buffer, read-out: Kinetic_solubility.
A short description of data set [19]: Half life in mouse liver microsomes. It is filed as ADME, Microsome. As to conditions: liver microsomes.
A short description of data set [20]: Half life in human liver microsomes. It is filed as ADME, Microsome.
Data set [21] has as its system Mus musculus. Briefly: Toxicity in athymic nu/nu Harlan mouse xenografted with human HCT116 cells assessed as body weight loss at 100 mg/kg, po QD for 21 days measured on day 22. It is filed as organism-based, HCT-116. Further details: dose 100 mg/kg, route oral. As to conditions: in vivo, 504 h.
Data set [22] in a line: Apparent permeability from apical to basolateral side of human Caco2 cells. It is filed as ADME, cell-based. As to conditions: Caco-2. Background: Caco-2 monolayers are a common model of the intestinal barrier.
Data set [23] has as its system Mus musculus. Kind of data set: Toxicity in athymic nu/nu Harlan mouse xenografted with human HCT116 cells assessed as mouse survival at 25 mg/kg, po QD for 21 days measured on day 22. On the set-up: dose 25 mg/kg, route oral. It is filed as organism-based, HCT-116. The note with it: in vivo, 504 h.
Data set [24] is described as follows: Apparent permeability from basolateral to apical side of human Caco2 cells. It is filed as ADME, cell-based. The note with it: Caco-2.
Data set [25] relates to HCT-116. Briefly: Antitumor activity against human HCT116 cells xenografted in athymic nu/nu Harlan mouse assessed as tumor growth inhibition at 25 mg/kg, po qd for 21 days measured on day 22. It is filed as functional. The note with it: read-out: TGI.

Structures are written as SMILES.

Sequence of Histone deacetylase 4 (P56524 whole entry): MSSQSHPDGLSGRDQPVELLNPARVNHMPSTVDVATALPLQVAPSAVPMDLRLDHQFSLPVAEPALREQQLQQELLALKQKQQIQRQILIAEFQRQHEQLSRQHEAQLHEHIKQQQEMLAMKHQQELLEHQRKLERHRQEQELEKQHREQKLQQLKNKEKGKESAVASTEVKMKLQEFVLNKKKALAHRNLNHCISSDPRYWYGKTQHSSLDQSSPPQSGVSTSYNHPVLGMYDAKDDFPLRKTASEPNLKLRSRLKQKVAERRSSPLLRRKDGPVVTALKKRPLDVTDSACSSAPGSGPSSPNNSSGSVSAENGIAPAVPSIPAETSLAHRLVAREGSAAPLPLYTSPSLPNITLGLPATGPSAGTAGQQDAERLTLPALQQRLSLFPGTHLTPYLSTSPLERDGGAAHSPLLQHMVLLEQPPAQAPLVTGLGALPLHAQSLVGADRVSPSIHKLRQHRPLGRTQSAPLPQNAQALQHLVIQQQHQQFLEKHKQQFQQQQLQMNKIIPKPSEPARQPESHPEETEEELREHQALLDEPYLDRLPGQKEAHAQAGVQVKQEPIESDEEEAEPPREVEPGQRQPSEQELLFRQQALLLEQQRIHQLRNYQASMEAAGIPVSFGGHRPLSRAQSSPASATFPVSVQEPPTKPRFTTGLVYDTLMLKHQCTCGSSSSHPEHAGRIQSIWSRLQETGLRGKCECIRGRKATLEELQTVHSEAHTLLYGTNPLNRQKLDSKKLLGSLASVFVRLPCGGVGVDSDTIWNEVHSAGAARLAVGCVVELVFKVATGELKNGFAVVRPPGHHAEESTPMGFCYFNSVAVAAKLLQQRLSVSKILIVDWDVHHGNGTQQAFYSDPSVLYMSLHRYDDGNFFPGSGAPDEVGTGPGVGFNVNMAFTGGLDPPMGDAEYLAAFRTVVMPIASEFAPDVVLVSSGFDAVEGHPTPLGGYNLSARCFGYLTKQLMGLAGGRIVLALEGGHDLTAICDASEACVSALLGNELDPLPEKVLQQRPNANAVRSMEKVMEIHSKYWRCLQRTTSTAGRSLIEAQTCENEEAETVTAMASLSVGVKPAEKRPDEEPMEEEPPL
Description for Histone deacetylase 4: Competitive inhibition of HDAC4 using KI-104 as substrate by fluorescence assay

As usually defined, the IC50 is the midpoint of a concentration-inhibition curve. One may read the Ki as a dissociation constant, usually derived from enzyme kinetics or from competition with a known ligand. High values mean lower affinity, low ones higher affinity. The term bioavailability denotes dose-corrected exposure relative to a reference, in per cent. High values mean good availability, low ones poor availability. Consider `O=C(/C=C/c1cccc(S(=O)(=O)Nc2ccccc2)c1)NO` [BELINOSTAT], for which the inhibition in vivo at 50 mg/kg in the data set on HCT-116 [1] came out at 6%. The inhibition in vivo at 40 mg/kg with HCT-116 [2] was found to be 50%. Moreover, the Activity entry in the data set on Mus musculus [3] was “Non-toxic”; in the data set on Mus musculus [4], “Non-toxic”; with Mus musculus [6], “Non-toxic”; with Mus musculus [8], 3.9%. For the same compound, the IC50 with COLO 205 came to 700 nM; in the data set on PC-3, 450 nM; with A2780, 670 nM; with HCT-116 [12], 600 nM. For the same compound, the inhibition in vivo at 200 mg/kg with HCT-116 [5] is 42%; with HCT-116 [13], 29%. The Ki in [7] worked out at 10 nM; in data set [10], 59 nM; at Histone deacetylase 4, 15 nM. In addition, the inhibition in vivo at 100 mg/kg in the data set on HCT-116 [9] came out at 26%. Besides, the bioavailability in [11] amounted to 6.7%.
What is called logD is the decadic logarithm of the distribution of all forms, ionised or not, between an organic phase and buffer at a given pH. What is called half-life is how long it takes for the measured level to halve. A low value points to fast loss. The term Papp A→B denotes how fast a substance crosses the layer from the apical side. A word on the Papp B→A: it is the apparent permeability from the basolateral to the apical side of a cell layer. On to `CN(C)CC(C)(C)Cn1c(CC(C)(C)C)nc2cc(/C=C/C(=O)NO)ccc21.Cl.Cl`, for which, in data set [14], the logD came out at 2.41. The inhibition in vivo at 50 mg/kg in the data set on HCT-116 [1] is 55%. The Activity in the data set with Mus musculus [15] is 5.6%; in the data set with Mus musculus [3], “Non-toxic”; with Mus musculus [6] it was “Non-toxic”; with Mus musculus [21], 13.1%; in the data set on Mus musculus [23], “Non-toxic”. The half-life in data set [16] was 41 min; in data set [17], over 60 min; in [19], 20 min; in data set [20] it was over 60 min. For the same compound, the solubility kinetic in data set [18] was over 200 µM. Besides, in data set [22], the Papp A→B is 19.4 ×10⁻⁶ cm/s. In addition, the inhibition in vivo at 100 mg/kg with HCT-116 [9] was 85%. The Papp B→A in [24] came to 14.9 ×10⁻⁶ cm/s. In addition, the inhibition in vivo at 25 mg/kg with HCT-116 [25] came out at 30%.

(Values after ChEMBL document CHEMBL1828590 (J Med Chem, 2011).)
